Measurements as given in patent US20230372569A1 (priority 2020, published 2023).

What was measured:
Pseudomonas aeruginosa = experiment: Deactivation kinetics (Weibull model) with PAA, with and without UVC; format: cell-based
Text: (§1) In most cases, especially for the PAA+UVC combination, they are nonlinear in coordinates log10[CFU]:-t. Formally it means that it was not a classical first-order reaction. The first-order model assumes that the cells and spores in a population have the same resistance and that the relationship between the decline in the number of survivors over the treatment time is linear. The model can be written as log10(N/N0)=−kt, where N0 is the initial number of cells (CFU/ml), N is the number of survivors after an exposure time t (CFU/ml), k is the rate parameter, and t is the treatment time (min). The D value, a typical index of inactivation kinetics, is the decimal reduction time in minutes (time required to kill 90% of the organisms).
(§2) The Weibull model assumes that the survival curve is a cumulative distribution of lethal effects. The cumulative form of the Weibull distribution is given by log10(N/N0)=[…], where b and n are the scale and shape parameters, respectively. When the shape parameter n is greater than or less than 1, the shape of the survival curve will present a shoulder or tailing, respectively. When n=1, the cumulative form of the Weibull distribution reduces to the first-order rate equation. For the Weibull model, the parameter td, which is analogous to the traditional D value, can be determined. td is the time required for d log reductions of the number of microorganisms and was calculated by the parameters b and n as shown in the equation
(§3) where d is the desired log reduction, b=k and 2.303 is coefficient due to the shift from base e logarithms to base 10 ones.

Candida albicans = experiment: as above; format: cell-based
Text: as §1, §2, §3

Staphylococcus aureus = experiment: as above; format: cell-based
Text: as §1, §2, §3

Salmonella enterica = experiment: as above; format: cell-based
Text: as §1, §2, §3

[1] = acetic acid value given as TWA; cited from earlier work
[2] = tested on: Clostridium difficile ATCC43539; experiment: Room decontamination test, inoculated dirty petri dishes (5% horse serum), two hours; format: cell-based; details: 5% w/w peracetic acid solution, 66 m^3 room
Description: A room of volume 66 m^3 (6 m×4.2 m (floor area)×2.6 m (height)) was used as a test room. The room was closed in the usual way, that a domestic, clinic or hospital room would be closed off by closing windows, doors and external vents and turning off any air-conditioning. However, the room was not hermetically sealed and a small amount of airflow was permissible. The temperature of the test room was ambient room temperature (between 20° C. and 25° C.).
A peracetic acid vapour/mist generator (nebulizer) was positioned along the smaller wall, at a height of about 1.21 m.
The peracetic acid vapour/mist generator utilised a commercially available 5% w/w peracetic acid solution. Peracetic acid is sold as an equilibrium mixture of hydrogen peroxide, acetic acid and water. 5% w/w Peracetic acid solution typically comprises 20-30% w/w hydrogen peroxide, 6-10% w/w acetic acid 4.5-5.4% w/w peracetic acid and the balance being water. In many embodiments of the present invention, the 5% w/w peracetic acid solution used comprised 24% w/w hydrogen peroxide, 7.5% w/w acetic acid 5% w/w peracetic acid and the balance being water.
The peracetic acid vapour/mist generator was also accompanied by a UV light that was located in the same housing. […] That is a known germicidal wavelength. The UV light shone upon all the exposed surfaces in the room. The UV lamp was 18 watts. The bulb used synthetic quartz to prevent escape of 185 nm ozone-forming radiation.
The UV-C light and peracetic acid vapour/mist generator could be operated independently or simultaneously, allowing for a direct comparison of the individual decontaminating agents with each other and with the combination.
Immediately before commencing sterilization, petri dishes containing inoculum were placed at three discrete locations within the room—one close to the UV/peracetic acid device (e.g. 80 cm from the device), one in the middle of the room and the other at the opposite end of the room. The dishes were also placed at differing heights. The petridishes were “dirty” and contained 5% horse serum. […] The number of microorganisms was counted. […]

| SMILES | D (decimal reduction time) (Pseudomonas aeruginosa) | k (Weibull deactivation constant) (Pseudomonas aeruginosa) | n (Weibull shape parameter) (Pseudomonas aeruginosa) | D (decimal reduction time) (Candida albicans) | k (Weibull deactivation constant) (Candida albicans) | n (Weibull shape parameter) (Candida albicans) | D (decimal reduction time) (Staphylococcus aureus) | k (Weibull deactivation constant) (Staphylococcus aureus) | n (Weibull shape parameter) (Staphylococcus aureus) | D (decimal reduction time) (Salmonella enterica) | k (Weibull deactivation constant) (Salmonella enterica) | n (Weibull shape parameter) (Salmonella enterica) | vapour safety level [1] | Log reduction, Location 1 ([2]; Location 1 (close to device)) | Log reduction, Location 2 ([2]; Location 2 (middle of room)) | Log reduction, Location 3 ([2]; Location 3 (opposite end of room)) |
| --- | --- | --- | --- | --- | --- | --- | --- | --- | --- | --- | --- | --- | --- | --- | --- | --- |
| CC(=O)OO [Peracetic Acid only, Peracetic acid] | 168 min | 0.052 h⁻¹ | 1.5 | 37 min | 0.45 h⁻¹ | 1.25 | 223 min | 0.055 h⁻¹ | 1.13 | 70 min | 0.2 h⁻¹ | 1.24 | 0.17 ppm | Log 0.71 log | log 0.97 | log 1.19 |
| CC(=O)O [acetic acid] |  |  |  |  |  |  |  |  |  |  |  |  | 10 ppm |  |  |  |
